From patent publication US11066369B2, “N-(pyridin-2-yl)pyridine-sulfonamide derivatives and their use in the treatment of disease” (Novartis AG, priority 2016, dated 2021)
Counter-ions that a name gives are not always drawn.

What was measured:
[1] = target: T1, delF508-CFTR (Homo sapiens, UniProt P13569, DEL508-508); experiment: Measurement of delF508-CFTR functional activity in primary human bronchial epithelial cells (HBECs) using Multi-Transepithelial Clamp Circuit (MTECC-24) assay; assay type: cell-based; settings: primary CF HBECs; for MTECC24 CFHBEC- Amax %: test compound added 24h before assay plus potentiator, relative to reference combination (2 μM corrector + 0.5 μM potentiator); for EC50: test compound added 24h before assay, in the presence of potentiator, mean of at least two replicates, read-out: MTECC24 CFHBEC- EC50
T1 construct: functional activity of the CFTR channel (Chloride ion transport) in patient derived primary human bronchial epithelial cells; host or cells: patient-derived primary human bronchial epithelial cells (delF508-CFTR)
Source text: [formula] Measurement of delF508-CFTR Functional Activity in Primary Human Bronchial Epithelial Cells (HBECs) Using Multi-Transepithelial Clamp Circuit (MTECC-24) Assay
This assay measures the functional activity of the CFTR channel (Chloride ion transport) in patient derived primary human bronchial epithelial cells with forskolin activation and in the presence of the CFTR corrector/potentiator combo.
Primary human delF508-CFTR bronchial epithelial cells were purchased from Asterand and cultured according to previously established methods (Fulcher et al. (2005) Methods Mol Med 107: 183-206). Briefly, vendor supplied cells were rapidly defrosted and added to a T175 flask in 50 mL growth media (Lonza BEBM media with Lonza BEGM singlequots). Media was replaced after 24h and then cells were fed every other day until cells were 80-90% confluent, at which point cells were cryopreserved. These P1 vials were thawed at 37° C. as needed and added to T175 flasks in 50 mL growth media at 5×10^5 cells/flask. Media was replaced after 24h, and then cells were fed every other day until 80-90% confluent. Cells were lifted with 5 mL accutase at 37° C. for 5 minutes, centrifuged at 1000 rpms for 5 min (300 g), and resuspended in differentiation media (50% BEBM in DMEM, BEGM singlequots, all trans retinoic acid (5×10^−8M)). Cells were then counted and cell suspension was added to collagen coated inserts at 3×10^4 cells/insert in 0.15 mL with 0.5 mL differentiation media on the basolateral side.
Apical and basolateral media were replaced on alternate days, and following day 7 (or when confluent plus 2 days), air liquid interface was established for approximately two weeks by removal of apical media. One day prior to use on the MTECC24 system (EP-Devices, EP Design, Belgium), 0.15 mL of warmed (37° C.) PBS was added to the apical surface of the cultures and returned to humidifier (37° C., 5% CO2 incubator) for 30 min before aspirating the apical surface to remove any mucus.
Compound treatments were then prepared. Compound dilutions, typically a 10 point concentration response with 1 in 3 dilution steps, were made in 100% DMSO before dilution 1 in 1000 into differentiation medium with a final DMSO concentration of 0.1% or 0.2% for the study. Compound containing medium was then transferred into the wells of a 24 well plate at 0.5 mL per well and warmed for 30 min in a 37° C. incubator prior to transferring washed inserts into the compound containing plates. Cells were incubated in compound containing medium (basolateral only) for 24h prior to measurement in the MTECC24 system.
Following 24 hr treatment, compound dilutions were prepared again, diluted 1 in 1000 into 37° C. assay medium (F-12 Coon's modified, 20 mM HEPES pH7.4 with TRIS Base, No FCS or bicarbonate). Cells which were treated for 24h with test compound were then transferred into plates containing 0.75 mL compound treatment in assay medium (basolateral) and 0.25 mL of the compound containing assay medium was added to the apical surface. The plates were then transferred to the heated plate compartments of the MTECC24 system for 45 min prior to measurements (this can also be done in a non-CO2 37° C. humidified incubator). Basolateral temperature should not exceed 36.5° C. and apical temperature should be approximately 35.5° C.
Modulators were added sequentially as follows while the MTECC24 instrument recorded the equivalent short circuit current (Ieq):
Prior to dilution into F-12 medium the stocks are as follows:
Amiloride stock is 10 mM in H2O
Forskolin Stock is 10 mM in 100% DMSO
(S)-3-amino-6-methoxy-N-(3,3,3-trifluoro-2-hydroxy-2-methylpropyl)-5-(trifluoromethyl)picolinamide is 0.5 mM stock in 100% DMSO
INH-172 (4-[[4-Oxo-2-thioxo-3-[3-trifluoromethyl)phenyl]-5-thiazolidinylidene]methyl]benzoic acid) stock is 30 mM in 100% DMSO
The data was normalized using the median signal from wells treated with 0.1% DMSO as a baseline. […]

[2] = target: T2, horseradish peroxidase (HRP) tagged delF508-CFTR (Homo sapiens, UniProt P13569, DEL508-508); experiment: Measurement of delF508-CFTR-HRP surface expression in CFBE41o- cells; assay type: cell-based; settings: delF508-CFTR-HRP surface expression, CFBE41o- cells; for Emax: read-out: DelF508-CFTR-HRP Amax %; for EC50: read-out: DelF508-CFTR-HRP EC50;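 on DelF508-CFTR-HRP Amax %: percent efficacy relative to reference corrector lumacaftor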
T2 construct: expressed in transfected cells
Summary of the method: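 Surface-trafficked delF508-CFTR detected via extracellular HRP tag, read as luminescence from a membrane-impermeant substrate in CFBE41o- cells. Cells pre-induced 48h with 500 ng/mL doxycycline, then exposed 24h at 37° C to a 10-point, 3-fold dilution series from 10 μM (DMSO ≤0.5%). Triplicate dose-responses fitted logistically for EC50 after per-plate normalization; fold change versus reference compound.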

T1 sequence (P13569 with tags, fused parts or gaps DEL508-508): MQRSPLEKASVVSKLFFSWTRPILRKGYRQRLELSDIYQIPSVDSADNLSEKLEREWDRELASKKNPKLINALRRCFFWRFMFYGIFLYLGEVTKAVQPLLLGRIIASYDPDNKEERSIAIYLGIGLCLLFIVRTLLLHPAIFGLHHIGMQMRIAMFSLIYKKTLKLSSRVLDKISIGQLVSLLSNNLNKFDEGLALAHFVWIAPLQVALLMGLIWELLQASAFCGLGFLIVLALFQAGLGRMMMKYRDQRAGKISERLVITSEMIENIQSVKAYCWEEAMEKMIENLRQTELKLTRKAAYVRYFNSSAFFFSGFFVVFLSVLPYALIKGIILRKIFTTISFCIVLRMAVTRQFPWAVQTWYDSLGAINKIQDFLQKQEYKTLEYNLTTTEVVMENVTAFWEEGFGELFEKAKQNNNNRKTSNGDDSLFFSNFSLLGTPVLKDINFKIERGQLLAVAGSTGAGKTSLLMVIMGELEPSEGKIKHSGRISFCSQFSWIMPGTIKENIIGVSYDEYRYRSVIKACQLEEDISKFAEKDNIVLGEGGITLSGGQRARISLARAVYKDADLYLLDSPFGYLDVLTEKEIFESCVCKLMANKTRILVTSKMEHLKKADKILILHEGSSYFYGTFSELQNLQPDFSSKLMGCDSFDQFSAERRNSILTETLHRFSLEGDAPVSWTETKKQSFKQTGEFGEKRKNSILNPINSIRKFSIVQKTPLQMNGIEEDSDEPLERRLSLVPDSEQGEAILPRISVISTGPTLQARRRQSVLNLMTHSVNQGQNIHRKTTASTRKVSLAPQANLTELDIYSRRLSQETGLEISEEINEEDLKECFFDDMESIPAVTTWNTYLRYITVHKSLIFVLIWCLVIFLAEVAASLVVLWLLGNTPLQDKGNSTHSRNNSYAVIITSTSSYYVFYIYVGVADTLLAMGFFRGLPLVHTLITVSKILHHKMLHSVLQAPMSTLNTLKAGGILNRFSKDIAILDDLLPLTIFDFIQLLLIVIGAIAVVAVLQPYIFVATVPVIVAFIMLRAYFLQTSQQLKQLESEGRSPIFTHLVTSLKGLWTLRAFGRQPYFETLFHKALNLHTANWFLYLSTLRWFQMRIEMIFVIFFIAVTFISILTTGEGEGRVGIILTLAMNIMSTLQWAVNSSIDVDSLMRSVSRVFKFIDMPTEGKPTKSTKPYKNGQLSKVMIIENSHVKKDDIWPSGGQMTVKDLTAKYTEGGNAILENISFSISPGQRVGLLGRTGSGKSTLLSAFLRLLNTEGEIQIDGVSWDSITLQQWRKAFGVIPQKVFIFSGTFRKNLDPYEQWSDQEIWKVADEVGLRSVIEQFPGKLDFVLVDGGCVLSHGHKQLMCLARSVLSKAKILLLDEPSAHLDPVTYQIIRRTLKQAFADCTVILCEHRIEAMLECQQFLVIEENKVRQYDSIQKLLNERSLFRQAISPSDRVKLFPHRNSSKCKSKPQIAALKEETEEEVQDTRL
T2 sequence (P13569 with tags, fused parts or gaps DEL508-508): as above

Row | SMILES | MTECC24 CFHBEC- Amax % [1] [%] | EC50 [1] [nM] | Emax [2] [%] | EC50 [2] [nM]
1 | Cc1ccccc1-c1nc(NS(=O)(=O)c2cccc(N3CCC4(CC[C@@H]4N)CC3)n2)ccc1C(F)(F)F [Example 306, (S)-6-(1-amino-7-azaspiro[3.5]nonan-7-yl)-N-(6-(o-tolyl)-5-(trifluoromethyl)pyridin-2-yl)pyridine-2-sulfonamide] | 88.1 | 31.5 | 418 | 3050
2 | Cc1cccc(C)c1-c1nc(NS(=O)(=O)c2cccc(N3CCN[C@@H](CO)C3)n2)ccc1C(F)(F)F [Example 172, (R)—N-(6-(2,6-dimethylphenyl)-5-(trifluoromethyl)pyridin-2-yl)-6-(3-(hydroxymethyl)piperazin-1-yl)pyridine-2-sulfonamide Hydrochloride] | 77.0 | 314 | 684 | 2510
3 | Cc1ccc(F)cc1-c1nc(NS(=O)(=O)c2cccc(N3CCC(C(=O)O)C3)n2)ccc1C(F)(F)F (stereo not drawn) [Example 300, 1-(6-(N-(6-(5-fluoro-2-methylphenyl)-5-(trifluoromethyl)pyridin-2-yl)sulfamoyl)pyridin-2-yl) pyrrolidine-3-carboxylic Acid] | 43.5 | 12.8 | 626 | 3270
4 | Cc1ccc(F)cc1-c1nc(NS(=O)(=O)c2cccc(O[C@@H]3COC[C@@H]3O)n2)ccc1Cl [Example 289, N-(5-chloro-6-(5-fluoro-2-methylphenyl)pyridin-2-yl)-6-(((3R,4S)-4-hydroxytetrahydrofuran-3-yl)oxy)pyridine-2-sulfonamide] | 50.5 | 12.1 | 450 | 2360
5 | Cc1ccc(F)cc1-c1nc(NS(=O)(=O)c2cccc(N3CCN4C[C@@H](F)C[C@@H]4C3)n2)ccc1Cl [Example 134, N-(5-chloro-6-(5-fluoro-2-methylphenyl)pyridin-2-yl)-6-((7S,8aR)-7-fluorohexahydropyrrolo[1,2-a]pyrazin-2(1H)-yl)pyridine-2-sulfonamide] | 112.7 | 19 | 906 | 1980
6 | Cc1ccc(C(F)(F)F)cc1-c1nc(NS(=O)(=O)c2cccc(N3CCNCC3)n2)ccc1Cl [Example 169, N-(5-chloro-6-(2-methyl-5-(trifluoromethyl)phenyl)pyridin-2-yl)-6-(piperazin-1-yl)pyridine-2-sulfonamide Hydrochloride] | 40.5 | 144 | 182 | 4000
7 | CC1(C(=O)O)CCCN(c2cccc(S(=O)(=O)Nc3ccc(C(F)(F)F)c(-c4ccccc4C4CCC4)n3)n2)C1 (stereo not drawn) [Example 368, 1-(6-(N-(6-(2-cyclobutylphenyl)-5-(trifluoromethyl)pyridin-2-yl)sulfamoyl)pyridin-2-yl)-3-methylpiperidine-3-carboxylic Acid] | 66.2 | 0.152 | – | 671
8 | Cc1ccccc1-c1nc(NS(=O)(=O)c2cccc(N3CCN(C(=O)OC(C)(C)C)CC3)n2)ccc1C(F)(F)F [Example 160, tert-butyl 4-(6-(N-(6-(o-tolyl)-5-(trifluoromethyl)pyridin-2-yl)sulfamoyl)pyridin-2-yl)piperazine-1-carboxylate] | 88.2 | 23.3 | 476 | 743
9 | Cc1cccc(C)c1-c1nc(NS(=O)(=O)c2cccc(N[C@H]3C[C@H](O)C3)n2)ccc1Cl [Example 287, N-[5-chloro-6-(2,6-dimethylphenyl)pyridin-2-yl]-6-{[(1r,3r)-3-hydroxycyclobutyl]amino}pyridine-2-sulfonamide] | 74.8 | 7.1 | 384 | 1410
10 | Cc1ccccc1-c1nc(NS(=O)(=O)c2cccc(N3CCNC[C@@H]3C)n2)ccc1C(F)(F)F [Example 170, (S)-6-(2-methylpiperazin-1-yl)-N-(6-(o-tolyl)-5-(trifluoromethyl)pyridin-2-yl)pyridine-2-sulfonamide Hydrochloride] | 63.3 | 174 | 306 | 2200
11 | Cc1ccccc1-c1nc(NS(=O)(=O)c2cccc(N3CCN(C(=O)OC(C)(C)C)[C@@H](CO)C3)n2)ccc1C(F)(F)F [Example 164, tert-butyl (R)-2-(hydroxymethyl)-4-(6-(N-(6-(o-tolyl)-5-(trifluoromethyl)pyridin-2-yl)sulfamoyl)pyridin-2-yl)piperazine-1-carboxylate] | 74.3 | 49.5 | 578 | 1060
12 | COc1ccc(Cl)c(-c2nc(NS(=O)(=O)c3cccc(N4CCNCC4)n3)ccc2C(F)(F)F)c1 [Example 154, N-(6-(2-chloro-5-methoxyphenyl)-5-(trifluoromethyl)pyridin-2-yl)-6-(piperazin-1-yl)pyridine-2-sulfonamide hydrochloride] | 69.5 | 239 | 395 | 3460
13 | Cc1ccccc1-c1nc(NS(=O)(=O)c2cccc(N3CC[C@@H](N)C3)n2)ccc1C(F)(F)F [Example 119, (R)-6-(3-aminopyrrolidin-1-yl)-N-(6-(o-tolyl)-5-(trifluoromethyl)pyridin-2-yl)pyridine-2-sulfonamide Hydrochloride] | 70.2 | 55.3 | 411 | 1830
14 | Cc1ccccc1-c1nc(NS(=O)(=O)c2cccc(N3CCC(C)(N)CC3)n2)ccc1C(F)(F)F [Example 110, 6-(4-amino-4-methylpiperidin-1-yl)-N-(6-(o-tolyl)-5-(trifluoromethyl)pyridin-2-yl)pyridine-2-sulfonamide Hydrochloride] | 65.6 | 28 | 372 | 2800
15 | Cc1cccc(C)c1-c1cc(C(F)(F)F)cc(NS(=O)(=O)c2cccc(N3CC(O)C3)n2)n1 [Example 205, N-(6-(2,6-dimethylphenyl)-4-(trifluoromethyl)pyridin-2-yl)-6-(3-hydroxyazetidin-1-yl)pyridine-2-sulfonamide] | 66.8 | 1.8 | 592 | 1290
16 | Cc1ccc(F)cc1-c1nc(NS(=O)(=O)c2cccc(N)n2)ccc1Cl [Example 6, 6-amino-N-(5-chloro-6-(5-fluoro-2-methylphenyl)pyridin-2-yl)pyridine-2-sulfonamide] | 61.0 | 13.1 | 612 | 1510
